Test results published in PMC8284461, “Piperidine-4-Carboxamides Target DNA Gyrase in Mycobacterium abscessus” (Antimicrobial Agents and Chemotherapy, 2021).
Converted amounts (≈) assume the structure as drawn.

Columns and labels:
[1] = tested on: M. abscessus subsp. abscessus ATCC 19977 844-TMF^r-4 (GyrB M474I); experiment: MIC, resistant mutant; type: cell-based, Mycobacterium abscessus; details: Mycobacteroides abscessus, ATCC19977
[2] = tested on: M. abscessus subsp. abscessus ATCC 19977 MXF^r-1 (GyrA D96Y); experiment: MIC, resistant mutant; type: cell-based, Mycobacterium abscessus; details: Mycobacteroides abscessus, ATCC19977
[3] = tested on: M. abscessus subsp. abscessus ATCC 19977 MXF^r-2 (GyrA D96N); experiment: MIC, resistant mutant; type: cell-based, Mycobacterium abscessus; details: Mycobacteroides abscessus, ATCC19977
[4] = tested on: M. abscessus subsp. abscessus ATCC 19977 MXF^r-3 (GyrA D96G); experiment: MIC, resistant mutant; type: cell-based, Mycobacterium abscessus; details: Mycobacteroides abscessus, ATCC19977
[5] = tested on: M. abscessus subsp. abscessus ATCC 19977 biofilm; experiment: Antibiofilm activity, MBEC biofilm assay; type: cell-based, Mycobacterium abscessus; details: 1×, 4×, 8× MIC; surface-attached CFU after 2 and 3 days
Experimental: The antibiofilm activity of 844 and 844-TMF was determined employing the MBEC 96-well Biofilm assay kit (19111; Innovotech, Edmonton, AB, Canada) as described previously ([15]) with minor modifications. Briefly, exponentially growing M. abscessus subsp. abscessus ATCC 19977 cultures were spun down at 3,200 × g for 10 min and washed with 7H9 broth without Tween 80 (‘7H9’). Bacteria were resuspended in ‘7H9’ to an OD600 of 0.0125, and 150 μl was dispensed into the wells of Innovotech 96-well plates. Pegs (protruding from the specialized lids of the Innovotech multiwell plates) were inserted into the bacterial suspensions in the wells, and the cultures were grown 24 h with shaking at 110 rpm at 37°C to allow attachment and growth of the bacteria on the surface of the pegs. […] Biofilm growth on the pegs was measured by CFU determination. The pegs were washed in 200 μl ‘7H9’ medium, removed, and placed in 1.7-ml microcentrifuge tubes (87003-294; VWR, Radnor, PA, USA) containing 500 μl PBS/Tween 80 (0.025%). The tubes were vortexed at 2,000 rpm for 90 s to detach and suspend the bacteria from the pegs before samples were serially diluted and plated onto 7H10 agar supplemented with 0.4% activated charcoal to determine CFU/peg.

[6] = tested on: M. abscessus subsp. abscessus ATCC 19977; experiment: Selection and characterization of spontaneous resistant mutants; type: cell-based, Mycobacterium abscessus; details: ATCC 19977, agar with 8× MIC
[7] = Mouse liver microsome stability; type: in vitro ADME
Experimental: Kinetic solubility, parallel artificial membrane permeability assay (PAMPA) permeability, and stability in the mouse liver microsome assay were performed by BioDuro (Shanghai, China) according to standard protocols.

Plasma stability = type: in vitro ADME, CD-1 mice; details: mouse plasma, 37°C, 1 μg/ml
Experimental: The plasma stability assays were carried out using plasma from female CD-1 mice, New Zealand white rabbits, rhesus monkeys, and humans containing K2EDTA anticoagulant (Bioreclamation). Stability samples consisted of 5 μl of stock compound solution in 50:50 ACN/water and 95 μl of plasma to a final concentration of 1 μg/ml. The samples were incubated at 37°C with shaking; 10 μl of plasma was removed at each time point and combined with 100 μl of ACN/methanol 50:50 protein precipitation solvent containing internal standard (10 ng/ml verapamil). Chromatography for metabolite identification was performed the same as specified for pharmacokinetic sample analysis. Full scan total ion chromatograms (TIC) of plasma extracts were acquired using a Q Exactive high-resolution mass spectrometer (QE-HRMS) at 70,000 mass resolution. Thermo Fisher Compound Discoverer software was used to assist in identifying the 844-TFM metabolites from the QE-HRMS TIC mass spectrum. Figure S2 in the supplemental material illustrates the extracted ion chromatograms (XIC) of 844-TFM and the metabolites using 5 ppm mass accuracy before and after 12 h of incubation in mouse plasma.

## COc1ccc2nccc(NC(=O)C3CCN(CCc4ccc(C(F)(F)F)cc4)CC3)c2n1 [844-TFM]
[1]
  MIC: 6 µM (≈ 2.75 µg/mL)
[2]
  MIC: 6 µM (≈ 2.75 µg/mL)
[3]
  MIC: 2 µM (≈ 0.917 µg/mL)
[4]
  MIC: 1 µM (≈ 0.458 µg/mL)
[5]
  bactericidal activity against M. abscessus grown as biofilm: bactericidal
[6]
  frequency of spontaneous resistance: 10^−8 /CFU
[7]; liver microsomes, mouse hepatic microsomes, scaled
  CLint scaled: 1050 mL/min/kg
[7]; liver microsomes, mouse hepatic microsomes, read-out: In vitro CLint
  microsomal CLint: 267 µL/min/mg
[7]; mouse hepatic microsomes, in vitro
  t1/2: 5.2 min
[7]; mouse hepatic microsomes, scaled
  CLhepatic: 82.9 mL/min/kg
[7]; mouse, liver microsomes, mouse hepatic microsomes, in vitro
  half-life: 5 min
[7]; mouse, clearance vs hepatic blood flow of 90 ml/min/kg
  predicted extraction ratio: ~1
Plasma stability
  stability in plasma: rapidly degraded
